ChEMBL document CHEMBL5724914, “Linking interpersonal differences in gut microbiota composition and drug biotransformation activity” (2024)

Tests used:
[1] = human gut metagenome, 24 h, 2 µM
[2] = (§1) The drug is tested on WLS-220 corresponding to human gut metagenome with ENA study accession number: PRJEB37062 and ENA sample accession number: ERS12561769 for biotransformation under anaerobic condition. The drug concentrations were measured over 9 timepoints collected between 0 and 24 hours of incubation by liquid-chromatography-coupled mass spectrometry (LC–MS); settings: 2 µM
[3] = as §1, with “Z-013” for “WLS-220”, “rabbit” for “human”, “ERS12561813” for “ERS12561769”; settings: 2 µM
[4] = human gut metagenome, 24 h, 2 µM; remark: listed apart in the source
[5] = human gut metagenome, 24 h, 2 µM; remark: listed apart in the source
[6] = human gut metagenome, 24 h, 2 µM; remark: listed apart in the source
[7] = as §1, with “Z-010” for “WLS-220”, “to” for “to human gut”, “ERS12561810” for “ERS12561769”; settings: 2 µM
[8] = human gut metagenome, 24 h, 2 µM; remark: listed apart in the source
[9] = human gut metagenome, 24 h, 2 µM; remark: listed apart in the source
[10] = as §1, with “WLS-350” for “WLS-220”, “ERS12561789” for “ERS12561769”; settings: 2 µM
[11] = as §1, with “WLS-240” for “WLS-220”, “ERS12561773” for “ERS12561769”; settings: 2 µM
[12] = human gut metagenome, 24 h, 2 µM; remark: listed apart in the source
[13] = as §1, with “Z-020” for “WLS-220”, “rabbit” for “human”, “ERS12561819” for “ERS12561769”; settings: 2 µM
[14] = as §1, with “WLS-370” for “WLS-220”, “ERS12561793” for “ERS12561769”; settings: 2 µM
[15] = as §1, with “Z-004” for “WLS-220”, “to” for “to human gut”, “ERS12561804” for “ERS12561769”; settings: 2 µM
[16] = as §1, with “Z-027” for “WLS-220”, “to” for “to human gut”, “ERS12561826” for “ERS12561769”; settings: 2 µM
[17] = as §1, with “Z-003” for “WLS-220”, “pig” for “human”, “ERS12561803” for “ERS12561769”; settings: 2 µM
[18] = human gut metagenome, 24 h, 2 µM; remark: listed apart in the source
[19] = as §1, with “Z-026” for “WLS-220”, “to” for “to human gut”, “ERS12561825” for “ERS12561769”; settings: 2 µM
[20] = human gut metagenome, 24 h, 2 µM; remark: listed apart in the source
Also: call rule not given here.

**Q.** For `Clc1cccc(Cl)c1N=C1NCCN1` [CLONIDINE], which “Bacterial Biotransformation” value [1] is on record?
**A.** Its value is “Compound NOT metabolized”.

**Q.** And the “Bacterial Biotransformation” value [2]?
**A.** The value was “Compound metabolized”.

**Q.** And the “Bacterial Biotransformation” value [3]?
**A.** The value was “Compound NOT metabolized”.

**Q.** And the “Bacterial Biotransformation” value [4]?
**A.** The value was “Compound metabolized”.

**Q.** And the “Bacterial Biotransformation” value [5]?
**A.** The value was “Compound NOT metabolized”.

**Q.** What about the “Bacterial Biotransformation” value [6] of the same compound?
**A.** Its value is “Compound metabolized”.

**Q.** What about the “Bacterial Biotransformation” value [7] of the same compound?
**A.** Its value is “Compound metabolized”.

**Q.** What about the “Bacterial Biotransformation” value [8] of the same compound?
**A.** Its value is “Compound NOT metabolized”.

**Q.** What about the “Bacterial Biotransformation” value [9] of the same compound?
**A.** The value was “Compound metabolized”.

**Q.** What about the “Bacterial Biotransformation” value [10] of the same compound?
**A.** Its value is “Compound NOT metabolized”.

**Q.** What about the “Bacterial Biotransformation” value [11] of the same compound?
**A.** The value was “Compound metabolized”.

**Q.** And the “Bacterial Biotransformation” value [12]?
**A.** Its value is “Compound NOT metabolized”.

**Q.** What about the “Bacterial Biotransformation” value [13] of the same compound?
**A.** Its value is “Compound metabolized”.

**Q.** And the “Bacterial Biotransformation” value [14]?
**A.** The value was “Compound NOT metabolized”.

**Q.** What about the “Bacterial Biotransformation” value [15] of the same compound?
**A.** Its value is “Compound metabolized”.

**Q.** And the “Bacterial Biotransformation” value [16]?
**A.** Its value is “Compound NOT metabolized”.

**Q.** What about the “Bacterial Biotransformation” value [17] of the same compound?
**A.** Its value is “Compound metabolized”.

**Q.** And the “Bacterial Biotransformation” value [18]?
**A.** The value was “Compound metabolized”.

**Q.** And the “Bacterial Biotransformation” value [19]?
**A.** Its value is “Compound NOT metabolized”.

**Q.** What about the “Bacterial Biotransformation” value [20] of the same compound?
**A.** Its value is “Compound NOT metabolized”.

**Q.** Which “Bacterial Biotransformation” value [1] does the source give for `COC(=O)[C@H](c1ccccc1Cl)N1CCc2sccc2C1.O=S(=O)(O)O` [CLOPIDOGREL BISULFATE] here?
**A.** Its value is “Compound metabolized”.

**Q.** And the “Bacterial Biotransformation” value [2]?
**A.** The value was “Compound metabolized”.

**Q.** What about the “Bacterial Biotransformation” value [3] of the same compound?
**A.** Its value is “Compound metabolized”.

**Q.** And the “Bacterial Biotransformation” value [4]?
**A.** Its value is “Compound metabolized”.

**Q.** What about the “Bacterial Biotransformation” value [5] of the same compound?
**A.** Its value is “Compound metabolized”.

**Q.** And the “Bacterial Biotransformation” value [6]?
**A.** Its value is “Compound metabolized”.

**Q.** And the “Bacterial Biotransformation” value [7]?
**A.** The value was “Compound metabolized”.

**Q.** And the “Bacterial Biotransformation” value [8]?
**A.** Its value is “Compound metabolized”.

**Q.** What about the “Bacterial Biotransformation” value [9] of the same compound?
**A.** The value was “Compound metabolized”.

**Q.** What about the “Bacterial Biotransformation” value [10] of the same compound?
**A.** The value was “Compound metabolized”.

**Q.** And the “Bacterial Biotransformation” value [11]?
**A.** The value was “Compound metabolized”.

**Q.** What about the “Bacterial Biotransformation” value [12] of the same compound?
**A.** The value was “Compound metabolized”.

**Q.** And the “Bacterial Biotransformation” value [13]?
**A.** Its value is “Compound metabolized”.

**Q.** And the “Bacterial Biotransformation” value [14]?
**A.** The value was “Compound metabolized”.

**Q.** What about the “Bacterial Biotransformation” value [15] of the same compound?
**A.** The value was “Compound metabolized”.

**Q.** And the “Bacterial Biotransformation” value [16]?
**A.** The value was “Compound metabolized”.

**Q.** What about the “Bacterial Biotransformation” value [17] of the same compound?
**A.** The value was “Compound metabolized”.

**Q.** What about the “Bacterial Biotransformation” value [18] of the same compound?
**A.** The value was “Compound metabolized”.

**Q.** And the “Bacterial Biotransformation” value [19]?
**A.** The value was “Compound metabolized”.

**Q.** And the “Bacterial Biotransformation” value [20]?
**A.** The value was “Compound metabolized”.

**Q.** For `O=P1(N(CCCl)CCCl)NCCCO1` (stereo not given) [CYCLOPHOSPHAMIDE ANHYDROUS], which “Bacterial Biotransformation” value [1] is on record?
**A.** Its value is “Compound NOT metabolized”.

**Q.** What about the “Bacterial Biotransformation” value [2] of the same compound?
**A.** Its value is “Compound metabolized”.

**Q.** What about the “Bacterial Biotransformation” value [3] of the same compound?
**A.** Its value is “Compound NOT metabolized”.

**Q.** And the “Bacterial Biotransformation” value [4]?
**A.** The value was “Compound metabolized”.

**Q.** What about the “Bacterial Biotransformation” value [5] of the same compound?
**A.** Its value is “Compound metabolized”.

**Q.** And the “Bacterial Biotransformation” value [6]?
**A.** The value was “Compound metabolized”.

**Q.** And the “Bacterial Biotransformation” value [7]?
**A.** The value was “Compound NOT metabolized”.

**Q.** What about the “Bacterial Biotransformation” value [8] of the same compound?
**A.** Its value is “Compound NOT metabolized”.

**Q.** What about the “Bacterial Biotransformation” value [9] of the same compound?
**A.** The value was “Compound metabolized”.

**Q.** And the “Bacterial Biotransformation” value [10]?
**A.** Its value is “Compound NOT metabolized”.

**Q.** What about the “Bacterial Biotransformation” value [11] of the same compound?
**A.** The value was “Compound metabolized”.

**Q.** What about the “Bacterial Biotransformation” value [12] of the same compound?
**A.** The value was “Compound NOT metabolized”.

**Q.** And the “Bacterial Biotransformation” value [13]?
**A.** The value was “Compound NOT metabolized”.

**Q.** And the “Bacterial Biotransformation” value [14]?
**A.** Its value is “Compound NOT metabolized”.

**Q.** What about the “Bacterial Biotransformation” value [15] of the same compound?
**A.** The value was “Compound metabolized”.

**Q.** What about the “Bacterial Biotransformation” value [16] of the same compound?
**A.** Its value is “Compound NOT metabolized”.

**Q.** And the “Bacterial Biotransformation” value [17]?
**A.** The value was “Compound NOT metabolized”.

**Q.** And the “Bacterial Biotransformation” value [18]?
**A.** The value was “Compound metabolized”.

**Q.** What about the “Bacterial Biotransformation” value [19] of the same compound?
**A.** The value was “Compound NOT metabolized”.

**Q.** And the “Bacterial Biotransformation” value [20]?
**A.** Its value is “Compound metabolized”.

**Q.** With `Br.COc1ccc2c(c1)[C@]13CCCC[C@@H]1[C@H](C2)N(C)CC3.O` [DEXTROMETHORPHAN HYDROBROMIDE] as the compound, how does the “Bacterial Biotransformation” value [1] read?
**A.** Its value is “Compound metabolized”.

**Q.** And the “Bacterial Biotransformation” value [2]?
**A.** Its value is “Compound metabolized”.

**Q.** And the “Bacterial Biotransformation” value [3]?
**A.** Its value is “Compound NOT metabolized”.

**Q.** And the “Bacterial Biotransformation” value [4]?
**A.** Its value is “Compound metabolized”.

**Q.** What about the “Bacterial Biotransformation” value [5] of the same compound?
**A.** The value was “Compound NOT metabolized”.

**Q.** And the “Bacterial Biotransformation” value [6]?
**A.** Its value is “Compound metabolized”.

**Q.** And the “Bacterial Biotransformation” value [7]?
**A.** The value was “Compound metabolized”.

**Q.** What about the “Bacterial Biotransformation” value [8] of the same compound?
**A.** Its value is “Compound NOT metabolized”.

**Q.** And the “Bacterial Biotransformation” value [9]?
**A.** Its value is “Compound metabolized”.

**Q.** What about the “Bacterial Biotransformation” value [10] of the same compound?
**A.** Its value is “Compound metabolized”.

**Q.** What about the “Bacterial Biotransformation” value [11] of the same compound?
**A.** The value was “Compound metabolized”.

**Q.** What about the “Bacterial Biotransformation” value [12] of the same compound?
**A.** Its value is “Compound NOT metabolized”.

**Q.** What about the “Bacterial Biotransformation” value [13] of the same compound?
**A.** Its value is “Compound metabolized”.

**Q.** What about the “Bacterial Biotransformation” value [14] of the same compound?
**A.** Its value is “Compound metabolized”.

**Q.** And the “Bacterial Biotransformation” value [15]?
**A.** Its value is “Compound metabolized”.

**Q.** And the “Bacterial Biotransformation” value [16]?
**A.** Its value is “Compound NOT metabolized”.

**Q.** And the “Bacterial Biotransformation” value [17]?
**A.** Its value is “Compound metabolized”.

**Q.** And the “Bacterial Biotransformation” value [18]?
**A.** Its value is “Compound metabolized”.

**Q.** What about the “Bacterial Biotransformation” value [19] of the same compound?
**A.** The value was “Compound NOT metabolized”.

**Q.** What about the “Bacterial Biotransformation” value [20] of the same compound?
**A.** The value was “Compound metabolized”.
